# Test results as given in publication PMC3676400, “3-Oxoacyl-ACP Reductase from Schistosoma japonicum: Integrated In Silico-In Vitro Strategy for Discovering Antischistosomal Lead Compounds” (PLoS ONE, 2013).
# Where two headings read alike, the source gives them in different places.
# Key:
# Escherichia coli OAR = conditions: E. coli, ref [32], cited from earlier work
# P. falciparum OAR = conditions: cited from earlier work
# M. tuberculosis OAR = conditions: cited from earlier work
# adult worms [1] = assay: Inhibition studies on cultured adult worms
# rSjOAR [2] = molecular target: T1, rSjOAR (Schistosoma japonicum, UniProt Q5DB51); assay: BIAcore assay of binding to immobilized rSjOAR
# Protocol: The binding capacities of small compounds identified by the virtual screen with rSjOAR were assessed using a BIAcore 3000 instrument (BIAcore AB, Uppsala, Sweden). The recombinant His-tag fusion protein SjOAR was immobilized onto an NTA chip. Compounds were injected at a concentration of 10 µM and a flow rate of 40 µl/min in HBS buffer (0.01 M HEPES, 0.15 M NaCl, 3.0 mM EDTA, 0.005% Tween 20, pH 7.4) containing 1‰ DMSO (Dimethyl sulfoxide). Electrical alterations on the sensor chip were monitored as a resonance signal by using the program supplied by the manufacturer. To further obtain kinetic parameters, a series of compound concentrations (0.5 µM, 1 µM, 2 µM, 5 µM and 10 µM) were measured. Data were analyzed by using the software with which the instrument was equipped.
# rSjOAR [3] = molecular target: T1, rSjOAR; assay: Effect of active compounds on rSjOAR enzymatic activity; assay type: biochemical
# Protocol: The Median inhibitory concentration (IC50) was calculated by curve fitting using SPSS18.0 statistical software with a confidence interval of 95%. All assays were carried out in triplicate and repeated three times.
# adult worms [4] = system: adult worms; parameters: method as in PMID 19851783; conditions: after the drug is removed; ref [30]; cited from earlier work
# [5] = substrate: CC(=O)CC(=O)SCCNC(=O)CCNC(=O)[C@H](O)C(C)(C)COP(=O)(O)OP(=O)(O)OC[C@H]1O[C@@H](n2cnc3c(N)ncnc32)[C@H](O)[C@@H]1OP(=O)(O)O; assay: rSjOAR kinetic analysis (Michaelis constants of substrates); assay type: biochemical; conditions: other: S. japonicum; pH 6.8; 37.0 °C
# Protocol: The linear rates obtained over the first 0–2 min were analyzed by the non-linear regression function in OriginPro software. To investigate the enzyme mechanism, a matrix of kinetic data was taken where one substrate was varied at four fixed concentrations of the other substrate. Individual data sets were analyzed using the Michaelis-Menten equation (eq 1) in order to establish whether the double-reciprocal plots were parallel or convergent. The data for intersecting initial velocity patterns were fitted to eq2, describing a steady-state sequential mechanism.
molecule,measurement,setting,value
"CC(=O)CC(=O)SCCNC(=O)CCNC(=O)[C@H](O)C(C)(C)COP(=O)(O)OP(=O)(O)OC[C@H]1O[C@@H](n2cnc3c(N)ncnc32)[C@H](O)[C@@H]1OP(=O)(O)O [AcAcCoA, Acetoacetyl-CoA]",Km,Escherichia coli OAR; read-out: Km(app)AcAcCoA,2500 µM
same,Km,"P. falciparum OAR; read-out: Km(app)AcAcCoA, ref [12], [22]",510 ± 50 µM
same,Km,"M. tuberculosis OAR; read-out: Km(app)AcAcCoA, M. tuberculosis, ref [17], [20]",170 ± 20 µM
O=C(NC1CCN(CCc2c[nH]c3ccccc23)CC1)c1ccccc1 [OAR8],mortality,"adult worms [1]; primary screening, 50 µg/ml, after 48 h",100%
same,Rmax (maximum binding capacity),rSjOAR [2]; BIAcore,57.4
same,KA (association constant),"rSjOAR [2]; BIAcore, five concentrations 0.5-10 µM",82900 M⁻¹
same,Kd,"rSjOAR [2]; BIAcore, five concentrations 0.5-10 µM, read-out: KD (dissociation constant)",12.1 µM
"O=C(C1CCCCC1)N1CC(=O)N2CCc3ccccc3C2C1 (stereo not shown) [PZQ, praziquantel]","morphological changes, optical microscopy","adult worms [1]; PZQ 10 µg/ml, 24 h (Figure 5E)",drastic contractions
same,mortality at 1.6 µg/mL,"adult worms [1]; Schistosoma japonicum, 72 h",83.3%
same,effect on rSjOAR enzymatic activity,rSjOAR [3],no significant inhibition
same,BIAcore response signal,rSjOAR [2]; compound 10 µM,only a small signal
same,reversibility of effect against schistosomes,adult worms [4],reversible
NADPH,Km,Escherichia coli OAR; read-out: Km(app)NADPH,21 µM
same,Km,"P. falciparum OAR; read-out: Km(app)NADPH, ref [12], [22]",47.5 ± 4.5 µM
same,Km,M. tuberculosis OAR; read-out: Km(app)NADPH,26 ± 3 µM
rSjOAR (Schistosoma japonicum) (protein) MISLSKKVAIVTGASSGIGRATAILFAKLGACVALVARDKSRLQETRQACIQVSHPDVYEKHKEPFLCIEADLGDSHEVEKAYRLALNHFHQLDILVNNAGFMIQDTVETFNIDEYERLMKLNLTAAITLTNLAVPDLTTTKGSIVNVSSVCGERSFPGVMSYCISKAALDQFTKCTALDLASKGIRVNSVNPAVIVTELHKRAGMSEDDYKKFLLKSKESHALGRTGTVEEVAQAIAFLSSSASSFTTGNLLMVDGGRSIMCPR,Km,[5],550 ± 30 µM
